Assay results reported in patent US6747032B2, “Pyrimidin-4-one compounds” (Les Laboratoires Servier, priority 2001, dated 2004).

Experiments:
[1] = target: T1, 5-HT2c receptors (Rattus norvegicus, UniProt P08909); assay: Penile erection test in the rat (erections caused by RO 60-0175); assay type: in vivo; conditions: sc, male Wistar rats, s.c., compound 30 min before RO 60-0175 (1.25 mg/kg s.c.), erections counted over 30 min, read-out: inhibitory dose 50 (ID50), inhibition of penile erections caused by RO 60-0175
T1 construct: from tissue; host or cells: whole animal (male Wistar rat, in vivo)
T1 sequence (P08909 33-460): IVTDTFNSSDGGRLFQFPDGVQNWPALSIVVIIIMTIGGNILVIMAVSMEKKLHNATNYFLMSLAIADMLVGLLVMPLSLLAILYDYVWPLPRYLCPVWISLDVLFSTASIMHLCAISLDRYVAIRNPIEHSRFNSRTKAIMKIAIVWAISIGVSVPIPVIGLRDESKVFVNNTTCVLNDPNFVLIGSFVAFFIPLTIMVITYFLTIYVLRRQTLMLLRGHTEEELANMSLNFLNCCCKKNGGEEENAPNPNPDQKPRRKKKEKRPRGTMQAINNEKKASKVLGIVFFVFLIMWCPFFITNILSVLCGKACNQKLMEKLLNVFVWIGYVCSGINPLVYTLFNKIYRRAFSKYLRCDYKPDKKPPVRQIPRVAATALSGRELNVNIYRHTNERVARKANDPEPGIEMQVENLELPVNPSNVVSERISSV
Protocol: This test allows evaluation of the capacity of pharmacological agents to inhibit penile erections caused by administration of a selective 5-HT2c agonist, RO 60-0175.
Male rats of the Wistar strain weighing 120-140 g on the day of the experiment are placed separately in plexiglass observation boxes immediately after the compound under test or the vehicle has been administered. Thirty minutes later, RO 60-0175 (1.25 mg/kg, subcutaneous) is administered to the animals and the number of erections occurring during the next 30 minutes is counted.

[2] = target: α2-adrenergic receptors; assay: Affinity for α2-adrenergic receptors, competition with [3H]-RX 821,002; assay type: binding; conditions: rat cerebral cortex membranes, 0.4 nM [3H]-RX 821,002, 60 minutes at 22° C.
Protocol: The affinity was determined by competition experiments with [^3H]-RX 821,002. The membranes are prepared from the cerebral cortex of the rat and are incubated in triplicate with 0.4 nM [^3H]-RX 821,002 and the compound being tested in a final volume of 1.0 ml, for 60 minutes at 22° C. The incubation buffer contains […] TRIS-HCl (pH 7.5), 1 mM EDTA and 100 μM GppNHp. The non-specific binding is determined using 10 μM phentolamine.
Data Analysis: At the end of the incubation, the incubation medium is filtered through WHATMAN GF/B filters impregnated with 0.1% of polyethylenimine and washed three times with 5 ml of cooled buffer. The radioactivity retained on the filters is determined by liquid scintillation counting. The binding isotherms are analysed by non-linear regression.

[3] = system: male mice of the NMRI strain; assay: Marble-burying test in the mouse; assay type: in vivo; conditions: s.c., 30 minutes' exploration, 24 marbles
Source text: This test allows evaluation of the capacity of pharmacological agents to inhibit spontaneous marble-burying behaviour in the mouse, the inhibition being predictive of antidepressant and/or anti-impulsive action.
Male mice of the NMRI strain weighing from 20 to 25 g on the day of the experiment are placed individually in Macrolon boxes containing 5 cm of sawdust and covered with a perforated plexiglass plate. Twenty-four “tiger's eye” glass marbles are evenly distributed on the sawdust at the periphery of the box. At the end of 30 minutes' free exploration, the animals are removed from the box and the number of buried marbles is counted.

[4] = system: male CD-1 mice; assay: Test for aggressiveness caused by isolation, in the mouse; assay type: in vivo; conditions: isolated male CD-1 mice, i.p., 30 min before test, measured over three minutes
Protocol: The animals used are male CD-1 mice. From the time of their arrival, the mice are isolated in individual cages, with free access to food and drink. After a period of one month of isolation, pairs of mice that are stable in terms of aggressiveness are selected by observing the latency period and the number and the duration of attacks when the mice are placed in the presence of one another.
The test is conducted once per week. On the day of the test, each mouse of the pair (resident and intruder) is given an intraperitoneal injection of the vehicle (control animals) or of the compound under test (treated animals) in a volume of 10 ml/kg. After 30 minutes, the intruder mouse is introduced into the cage of the resident mouse. The latency period until the first attack and the number and the duration of attacks are then measured over a period of three minutes.
A compound is considered to be specifically anti-aggressive when it reduces the number and the duration of attacks at non-sedative doses.

**Q.** What does the source list for `Cc1nc2ccccn2c(=O)c1CCN1CC2COc3ccc4ccccc4c3C2C1.O=C(O)/C=C/C(=O)O` (stereo not shown) [Example 3, 3-[2-(1,3a,4,11c-Tetrahydrobenzo[5,6]chromeno[3,4-c]pyrrol-2(3H)-yl)-ethyl]-2-methyl-4H-pyrido[1,2-a]pyrimidin-4-one Fumarate]?
**A.** ED50 [1]: 2.6 mg/kg; pKi [2]: 7.5; inhibitory dose 50 (ID50), spontaneous marble-burying behaviour [3]: 4.1 mg/kg; inhibitory dose 50 (ID50), number and duration of attacks [4]: 7 mg/kg
